Experimental data published in patent US20040175768A1, “Methods of biosensing using fluorescent polymers and quencher-tether-ligand bioconjugates” (priority 2002, published 2004).

Legend:
β-secretase enzyme [1] = molecular target: T1, β-secretase enzyme (Homo sapiens, UniProt P56817); details: 30 minutes at CRT, Sensor YY, excitation 440 nm, emission 576 nm
Experimental: The resulting solution sensor (“Sensor YY”) was made at the beginning of each experiment by incubating a 200-fold dilution of the master stock of “Sensor SS” with BRPE in a ratio that would provide 250 fmol of the latter in 40 μL of the mixture. To 5 μL of a 300 nM solution of BSEC-3 in assay buffer was added 30 ng of β-secretase enzyme in 5 μL of assay buffer. BSEC-3 has a polypeptide structure as set forth above. After incubating the control and sample mixtures for 30 minutes at CRT, 40 μL of the doped solution sensor (Sensor YY) was added to each well. The plate was shaken inside the plate reader for 60 seconds and the wells were probed for fluorescence intensity by exciting the polymer at 440 nm and measuring the emission intensity at 576 nm using a 475 nm cut-off filter. […] This observed difference was a measure of enzyme activity.

PNA-Capture = assay: Mismatch analysis with microsphere sensor loaded with PNA-based capture strand (FIG. 8); type: binding; details: competition with DNA-QTL for PNA-Cap; 40° C., total well volume 200 μL
Experimental: The approach used in this example involves the competition of quencher labeled target with target for a complementary capture strand on the surface of sensing microspheres.
FIG. 8 is a graph showing mismatch analysis with a microsphere sensor loaded with a PNA-based capture strand (denoted “PNA-Cap”) having a structure shown below. The experiments were performed at 40° C. with a total well volume of 200 μL.

β-secretase enzyme [2] = molecular target: T1, β-secretase enzyme; details: 30 minutes at CRT, Sensor SS, excitation 440 nm, emission 530 nm
Experimental: A QTL solution sensor (“Sensor SS”) was prepared by mixing together 56.5 nmol of Avidin (Biotin binding protein, BBP) and 848 nmol of biotinylated PPE polymer (1) in a total volume of 11.3 mL and incubating at CRT for 24 hours. The polymer and the BBP combine with each other through the biotin-avidin interaction to form stable entities. The solution sensor thus prepared was diluted appropriately with buffer at the beginning of each experiment. The structure of polymer (1) is shown below: [drawing 4]
To 5 μL of a 400 nM solution of BSEC-1 (structure shown below) in assay buffer in a 384-well plate was added 30 ng of β-secretase enzyme dissolved in 5 μL of assay buffer.
The mixture was made in triplicate and incubated for 30 minutes at CRT. The control wells contained only peptide and no enzyme. After incubation, a 100-fold dilution of the above solution sensor was added at 20 μL to each well. The plate was shaken inside the microplate reader and the wells were probed by exciting the polymer at 440 nm and measuring the emission intensity at 530 nm using a 475 nm cut-off filter. […] The difference in fluorescence was a measure of enzyme activity.

T1 sequence (P56817 46-501): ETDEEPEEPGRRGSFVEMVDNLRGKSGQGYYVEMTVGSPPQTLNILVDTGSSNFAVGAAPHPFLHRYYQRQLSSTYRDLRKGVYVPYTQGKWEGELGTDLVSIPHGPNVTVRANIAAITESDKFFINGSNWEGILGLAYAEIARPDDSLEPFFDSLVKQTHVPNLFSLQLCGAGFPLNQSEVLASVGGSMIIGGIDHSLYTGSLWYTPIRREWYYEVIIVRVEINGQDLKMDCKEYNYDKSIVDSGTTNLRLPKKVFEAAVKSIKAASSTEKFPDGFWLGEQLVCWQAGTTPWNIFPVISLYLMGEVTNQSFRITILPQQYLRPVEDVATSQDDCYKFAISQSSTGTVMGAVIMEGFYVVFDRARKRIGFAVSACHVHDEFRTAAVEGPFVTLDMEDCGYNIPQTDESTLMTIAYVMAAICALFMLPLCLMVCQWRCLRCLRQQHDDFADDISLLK

Q: “(AZO)-T-E-E-I-S-E-V-N-L-D-A-E-F-(K-Biotin)-OH [BSEC-3]” was tested. Which “RFU, sample wells containing enzyme” value (β-secretase enzyme [1]; 5 μL of 300 nM peptide + 30 ng β-secretase) did it give?
A: The value was 14,500±200 RFU.

Q: What about the “average RFU value, control wells” value (β-secretase enzyme [1]; 5 μL of 300 nM peptide, no enzyme) of the same substance?
A: The value was 5,200±200 RFU.

Q: For “5′-TGCATATTTAATGGAATTTA-3′ (TGCATATTTAATGGAATTTA; listed as DNA, chemistry not fully specified; the letters are possibly those of the target site) [AA double mismatch target]”, which “relative fluorescence with increasing amounts of target” value (PNA-Capture) is on record?
A: Its value is “observed for all targets except”.

Q: How did the “average RFU value, sample wells containing enzyme” value (β-secretase enzyme [2]; 5 μL of 400 nM peptide + 30 ng β-secretase) turn out when “(QSY7)-T-E-E-O-S-E-V-N-L-D-A-E-F-(K-Biotin)-OH [BSEC-1]” was run?
A: Its value is 8,350±200 RFU.

Q: What about the “average RFU value, control wells (only peptide and no enzyme)” value (β-secretase enzyme [2]; 5 μL of 400 nM peptide, no enzyme) of the same substance?
A: The value was 5,400±200 RFU.

Q: Which average RFU (polymer emission at 530 nm, Sensor SS) after 30 min incubation of 400 nM BSEC-1 with 30 ng β-secretase; control wells with peptide only gave 5,400±200 (BSEC-1) does the source give for β-secretase enzyme here?
A: Its average RFU (polymer emission at 530 nm, Sensor SS) after 30 min incubation of 400 nM BSEC-1 with 30 ng β-secretase; control wells with peptide only gave 5,400±200 is 8350 ± 200 RFU.

Q: What about the average RFU (emission at 576 nm, BRPE-doped Sensor YY) after 30 min incubation of 300 nM BSEC-3 with 30 ng β-secretase; control wells gave 5,200±200 (BSEC-3) of the same substance?
A: The average RFU (emission at 576 nm, BRPE-doped Sensor YY) after 30 min incubation of 300 nM BSEC-3 with 30 ng β-secretase; control wells gave 5,200±200 was 14500 ± 200 RFU.

Q: “5′-TGCATTTTTAATGGTATTTA-3′ (TGCATTTTTAATGGTATTTA; listed as DNA, chemistry not fully specified; the letters are possibly those of the target site) [perfect complement target]” was tested. Which “relative fluorescence with increasing amounts of target” value (PNA-Capture) did it give?
A: The value was “much higher”.
